Measurements: patent US20230285310A1, “COMPOSITIONS FOR THE DELIVERY OF PAYLOAD MOLECULES TO AIRWAY EPITHELIUM” (ModernaTX, Inc., priority 2020, published 2023)
Structures can show the parent of a compound that is named as a salt.

Legend:
respiratory epithelium [1] = experiment: LNP protein expression in rat after single dose of mRNA-LNP by intratracheal delivery (anti-V5 IHC); format: in vivo; details: intratracheal instillation, ~1.2 mpk, NPI-Luc mRNA, core with β-sitosterol for SA23
Method: Animals are anesthetized under isoflurane. The tongue is displaced and a small diameter cannula is inserted into the trachea (oropharyngeal route). The cannula tip is passed through the vocal chords, down the trachea so that the tip is very near, but not touching, the carina. Upon placement, 50 μL (mouse) or 200 μL (rat) of formulation is infused into the lungs. After 30 seconds upright, animals are released into a recovery cage and returned to their respective cages once recovered. Trachea, lungs and for the aerosol study nasal cavities, nasopharynx and larynx are collected for analysis. Lungs are inflated with 10% NBF fixative and trachea tied off to maintain inflation. Lungs are removed en bloc with attached trachea, bronchi and lobes. Whole lungs en bloc are fixed in 10% NBF at room temperature for at least 24 hours with a maximum of 48 hours and then removed from fixative and placed in PBS. Samples are immediately sent to be processed for paraffin 5-micron sections and H&E staining. IHC was performed on FFPE sections using the Leica Bond RX autostainer. […] Images were imaged at 20× magnification with the Panoramic 250 Flash III whole slide scanner. Image analysis was completed with Indica Labs HALO image analysis software. […] LNPs were prepared according to Example 2 using NPI-Luc as the mRNA construct. […] LNP protein expression in respiratory epithelium was evaluated according to sample collection and assay procedures A and B. The results are shown in Table 13b.

respiratory epithelium [2] = experiment: LNP protein expression in rat after single dose of mRNA-LNP by nose-only aerosol delivery (anti-V5 IHC); format: in vivo; details: LNP per Example 8
From the text: Aerosol is generated using a vibrating mesh nebulizer and a defined inlet air flow rate. Aerosol is introduced into the rodent nose-only directed flow exposure chamber by first passing through a mixing chamber before flowing into the exposure tier. Animals are exposed to fresh aerosol at each nose port, which is then exhausted out of the system.
Animals were trained to the nose-only dosing cones for three days prior to initiation of the study. On study day, animals were placed into the dosing cones that were then attached to the aerosol exposure chamber for designated exposure times of 60, 120 or 240 minutes per group for lung doses of 0.4, 0.6 and 1.1 mpk. Animals were monitored continuously throughout the entire exposure and subsequently for any observable adverse reactions. Aerosol concentration (mRNA) and aerodynamic particle size distribution were monitored at the dosing port before and after each dosing occasion to evaluate achieved dose levels and respirable aerosol particle size targets (1-4 μm for rat) respectively.
Trachea, lungs and for the aerosol study nasal cavities, nasopharynx and larynx are collected for analysis. Lungs are inflated with 10% NBF fixative and trachea tied off to maintain inflation. Lungs are removed en bloc with attached trachea, bronchi and lobes. Whole lungs en bloc are fixed in 10% NBF at room temperature for at least 24 hours with a maximum of 48 hours and then removed from fixative and placed in PBS. Samples are immediately sent to be processed for paraffin 5-micron sections and H&E staining.
For the aerosol study, nasal cavities, nasopharynx and larynx were also collected in addition to trachea and lungs.
IHC was performed on FFPE sections using the Leica Bond RX autostainer. NPI-Luc protein expression was detected by anti-V5 tag antibody at a 1:100 dilution. V5 antibody was detected with the Bond Polymer Refine Detection kit followed by hematoxylin and bluing reagent counterstain. Images were imaged at 20× magnification with the Panoramic 250 Flash III whole slide scanner. Image analysis was completed with Indica Labs HALO image analysis software. Trachea, lung and/or nasal cavity images were analyzed to capture total tracheal, bronchial or nasal epithelial cells and data expressed when appropriate as p % V5 positive epithelial cells per total epithelial cells per animal.
LNPs were prepared according to Example 8 using NPI-Luc as the mRNA construct. LNPs were delivered to rats by aerosol delivery using a nose-only aerosol dosing system. LNP protein expression in respiratory epithelium was evaluated according to sample collection and assay procedures A and B. The results are shown in Table 13c. Respiratory epithelium in the nasal cavity, trachea and bronchi were positive for protein expression after aerosol delivery of LNPs.

respiratory epithelium [3] = experiment: LNP protein expression in mouse after single dose of mRNA-LNP by intratracheal delivery (anti-V5 IHC); format: in vivo; details: intratracheal instillation, ~0.7 mpk, NPI-Luc mRNA, core with β-sitosterol for SA23, SA31
Method: Animals are anesthetized under isoflurane. The tongue is displaced and a small diameter cannula is inserted into the trachea (oropharyngeal route). The cannula tip is passed through the vocal chords, down the trachea so that the tip is very near, but not touching, the carina. Upon placement, 50 μL (mouse) or 200 μL (rat) of formulation is infused into the lungs. After 30 seconds upright, animals are released into a recovery cage and returned to their respective cages once recovered. Trachea, lungs and for the aerosol study nasal cavities, nasopharynx and larynx are collected for analysis. Lungs are inflated with 10% NBF fixative and trachea tied off to maintain inflation. Lungs are removed en bloc with attached trachea, bronchi and lobes. Whole lungs en bloc are fixed in 10% NBF at room temperature for at least 24 hours with a maximum of 48 hours and then removed from fixative and placed in PBS. Samples are immediately sent to be processed for paraffin 5-micron sections and H&E staining. IHC was performed on FFPE sections using the Leica Bond RX autostainer. […] Images were imaged at 20× magnification with the Panoramic 250 Flash III whole slide scanner. Image analysis was completed with Indica Labs HALO image analysis software. […] LNPs were prepared according to Example 2 using NPI-Luc as the mRNA construct. LNPs were delivered to mice by intratracheal instillation for a dose of ˜0.7 mpk. LNP protein expression in respiratory epithelium was evaluated according to sample collection and assay procedures A and B. The results are shown in Table 13a.

HeLa cells = experiment: Protein expression assay in HeLa cells (One-Glo luciferase, NPI-Luc mRNA); format: cell-based, human; details: 5 h, no serum, 4 wells, sterol amine post-added to LNP core Compound 18, DSPC, Cholesterol plus DMG-PEG 2K (SA3, SA11, SA24, SA26, SA39, SA32), plus Compound 428 (SA4, SA6, SA10, SA16), or plus β-sitosterol and DMG-PEG 2K (SA23, SA29, SA30, SA31)
Method: To evaluate protein expression In Vitro, HeLa cells from ATCC.org (ATCC CCL-2) are used. The cells are cultured in complete Minimum Essential Medium (MEM) and are plated in 96 well Cell Carrier Ultra plate with PDL coated surface (PerkinElmer) prior to running an experiment.
LNPs encapsulating NPI-Luc mRNA were dosed with MEM media in the absence of serum. LNP transfected cell were incubated for 5 h post LNP transfection, the cells were imaged live using Opera Phoenix spinning disk confocal microscope (PerkinElmer). Cells were detected using DAPI (405 nm channel), and image analysis was performed in Harmony 4.9, to quantify the number of cells. After imaging the cells were processed with One-Glo Luciferase assay (Promega) to quantify protein expression. Results were reported in relative luminescence units (RLU) normalized to cells counts.
LNPs were prepared according to Example 2 using NPI-Luc as the mRNA construct. NPI-Luc is a dual read reporter made by adding a 5xV5 tag and a C-myc nuclear localization sequence at the N-terminus of Firefly Luciferase to enhance the signal to noise ratio. Protein expression can be detected using OneGLo assays with luminescence readout or by immunofluorescence with anti-V5 antibodies. Protein expression was evaluated according to the procedure outlined in Example 7. The LNPs are dosed in 4 wells and the average response was reported. For the HeLa assay the luminescence read (RLU) were normalized to cell counts.

[4] = Rat Bronchi (left and right lung)

| Compound | Average % V5 positive cells/total cells (respiratory epithelium [1]; [4]) [%] | Average % V5 positive cells/total cells (respiratory epithelium [1]; Rat Trachea) [%] | Average % V5 positive cells/total cells (respiratory epithelium [3]; Mouse Bronchi (left lung)) [%] | Average % V5 positive cells/total cells (respiratory epithelium [3]; Mouse Trachea) [%] | Average protein expression per cell (RLU per cell) (HeLa cells) | also measured |
| --- | --- | --- | --- | --- | --- | --- |
| CC(C)CCC[C@@H](C)[C@H]1CC[C@H]2[C@@H]3CC=C4C[C@@H](OC(=O)N(CCCN)CCCCNCCCN)CC[C@]4(C)[C@H]3CC[C@]12C [SA3, (3S,8S,9S,10R,13R,14S,17R)-10,13-dimethyl-17-((R)-6-methylheptan-2-yl)-2,3,4,7,8,9,10,11,12,13,14,15,16,17-tetradecahydro-1H-cyclopenta[a]phenanthren-3-yl (3-aminopropyl)(4-((3-aminopropyl)amino)butyl)carbamate, trihydrochloride salt] | 4.95 | 2.97 | 9.33 | 40.7 | – | Average % V5 positive cells/total cells (respiratory epithelium [2]; Rat Bronchi (left and right lung), lung dose 0.4 mpk): 0.13%; Average % V5 positive cells/total cells (respiratory epithelium [2]; Rat Bronchi (left and right lung), lung dose 0.6 mpk): 0.13%; Average % V5 positive cells/total cells (respiratory epithelium [2]; Rat Bronchi (left and right lung), lung dose 1.1 mpk): 0.46%; Average % V5 positive cells/total cells (respiratory epithelium [2]; Rat Nasal Cavity, lung dose 0.4 mpk): 0.64%; Average % V5 positive cells/total cells (respiratory epithelium [2]; Rat Nasal Cavity, lung dose 0.6 mpk): 1.20%; Average % V5 positive cells/total cells (respiratory epithelium [2]; Rat Nasal Cavity, lung dose 1.1 mpk): 2.84%; Average % V5 positive cells/total cells (respiratory epithelium [2]; Rat Trachea, lung dose 0.4 mpk): 0.29%; Average % V5 positive cells/total cells (respiratory epithelium [2]; Rat Trachea, lung dose 0.6 mpk): 0.16%; Average % V5 positive cells/total cells (respiratory epithelium [2]; Rat Trachea, lung dose 1.1 mpk): 0.65% |
| CC(C)CCC[C@@H](C)[C@H]1CC[C@H]2[C@@H]3CC=C4C[C@@H](OC(=O)NCCNC(=N)N)CC[C@]4(C)[C@H]3CC[C@]12C [SA23, (3S,8S,9S,10R,13R,14S,17R)-10,13-dimethyl-17-((R)-6-methylheptan-2-yl)-2,3,4,7,8,9,10,11,12,13,14,15,16,17-tetradecahydro-1H-cyclopenta[a]phenanthren-3-yl (2-guanidinoethyl)carbamate, hydrochloride salt] | 1.38 | 0.83 | 0.98 | 0.8 | 868.8 | – |
| CC(C)CCC[C@@H](C)[C@H]1CC[C@H]2[C@@H]3CC=C4C[C@@H](OC(=O)CCC(=O)N(CCCN)CCCCN)CC[C@]4(C)[C@H]3CC[C@]12C [SA31, (3S,8S,9S,10R,13R,14S,17R)-10,13-Dimethyl-17-((R)-6-methylheptan-2-yl)-2,3,4,7,8,9,10,11,12,13,14,15,16,17-tetradecahydro-1H-cyclopenta[a]phenanthren-3-yl 4-((4-aminobutyl)(3-aminopropyl)amino)-4-oxobutanoate dihydrochloride] | – | – | 10.52 | 27.07 | 643.6 | – |
| CC(C)CCC[C@@H](C)[C@H]1CC[C@H]2[C@@H]3CC=C4C[C@@H](OC(=O)CC5CN6CCC5CC6)CC[C@]4(C)[C@H]3CC[C@]12C (stereo partly drawn) [SA32, (3S,8S,9S,10R,13R,14S,17R)-10,13-Dimethyl-17-((R)-6-methylheptan-2-yl)-2,3,4,7,8,9,10,11,12,13,14,15,16,17-tetradecahydro-1H-cyclopenta[a]phenanthren-3-yl 2-(quinuclidin-3-yl)acetate] | – | – | – | – | 301.8 | – |
| CC(C)CCC[C@@H](C)[C@H]1CC[C@H]2[C@@H]3CC=C4C[C@@H](SSCCC(=O)N(CCCN)CCCCNCCCN)CC[C@]4(C)[C@H]3CC[C@]12C [SA39, N-(3-Aminopropyl)-N-(4-((3-aminopropyl)amino)butyl)-3-(((3S,8S,9S,10R,13R,14S,17R)-10,13-dimethyl-17-((R)-6-methylheptan-2-yl)-2,3,4,7,8,9,10,11,12,13,14,15,16,17-tetradecahydro-1H-cyclopenta[a]phenanthren-3-yl)disulfaneyl)propanamide trihydrochloride] | – | – | – | – | 201.9 | – |
